The subject of series [1] is Mus musculus. Description: Antidiabetic activity in C57BL/6N mouse assessed as reduction in blood glucose AUC at 10 mg/kg, po administered for 60 mins followed by dextrose challenge by OGTT. The series is classed as functional. Set-up: scale not given: the % may be the effect or the level left.
Series [2] concerns Mus musculus. Description: Antidiabetic activity in po dosed C57BL/6N mouse assessed as reduction in blood glucose AUC after 60 mins followed by dextrose challenge by OGTT. It is filed as functional, organism-based.
Series [3] in a line: Plasma concentration in C57BL/6N mouse at 3 mg/kg, po administered for 60 mins followed by dextrose challenge during OGTT method. It is filed as ADME, organism-based.
Series [4] in a line: Plasma concentration in C57BL/6N mouse at 10 mg/kg, po administered for 60 mins followed by dextrose challenge during OGTT method. The series is classed as ADME, organism-based.
Series [5] can be described thus: Plasma concentration in C57BL/6N mouse at 1 mg/kg, po administered for 60 mins followed by dextrose challenge during OGTT method. It is filed as ADME, organism-based.
For series [6], the system named is Mus musculus. Description: Ex vivo inhibition of DPP4 in C57BL/6N mouse blood at 3 to 10 mg/kg, po measured after 2 to 6 hrs. It is filed as functional.
A short description of series [7]: Intrinsic clearance in human hepatocytes assessed per 10^6 cells at 1 uM after 30 to 120 mins by LC-MS/MS analysis. The following applies: read-out: CLH. It is filed as ADME, cell-based, Hepatocyte.
The nature of series [8]: Intrinsic clearance in cynomolgus monkey hepatocytes assessed per 10^6 cells at 1 uM after 30 to 120 mins by LC-MS/MS analysis. The series is classed as ADME, cell-based, Macaca fascicularis, Hepatocyte. The following applies: read-out: CLH.
Series [9] relates to Mus musculus. Description: Antidiabetic activity in C57BL/6N mouse assessed as reduction in blood glucose AUC at 1 mg/kg, po administered for 60 mins followed by dextrose challenge by OGTT. It is filed as functional. Details: scale not given: the % may be the effect or the level left.
Series [10] has as its system Mus musculus. Description: Antidiabetic activity in C57BL/6N mouse assessed as reduction in blood glucose AUC at 3 mg/kg, po administered for 60 mins followed by dextrose challenge by OGTT. It is filed as functional. Details: scale not given: the % may be the effect or the level left.
Series [11] has as its system Mus musculus. Kind of series: Ex vivo inhibition of DPP4 in C57BL/6N mouse blood at 1 to 10 mg/kg, po measured after 24 hrs. It is filed as functional, organism-based.
Series [12] deals with Mus musculus. Kind of series: Antidiabetic activity in C57BL/6N mouse assessed as reduction in blood glucose AUC at 0.3 mg/kg, po administered for 60 mins followed by dextrose challenge by OGTT. It is filed as functional. Set-up: scale not given: the % may be the effect or the level left.
Series [13] can be described thus: Plasma concentration in C57BL/6N mouse at 0.3 mg/kg, po administered for 60 mins followed by dextrose challenge during OGTT method. The series is classed as ADME, organism-based.
The nature of series [14]: Intrinsic clearance in dog hepatocytes assessed per 10^6 cells at 1 uM after 30 to 120 mins by LC-MS/MS analysis. Particulars: read-out: CLH. It is filed as ADME, cell-based, Canis lupus familiaris, Hepatocyte.
Series [15] in a line: Intrinsic clearance in rat hepatocytes assessed per 10^6 cells at 1 uM after 30 to 120 mins by LC-MS/MS analysis. It is filed as ADME, cell-based, Hepatocyte. The following applies: read-out: CLH.

Molecules are shown by their SMILES. Calls of active or inactive are those of the source. The calls are words filed in the database; no cut-off is given here. Bounds are passed on as bounds.

Consider `CN1C(=O)Cn2c1nc1nc(N3CCC[C@@H](N)C3)n(Cc3cc(F)ccc3C#N)c1c2=O`, for which the Activity was 63% in the series on Mus musculus [1]; “Dose-dependent effect” in the series with Mus musculus [2]; 52% with Mus musculus [9]; 64% in the series on Mus musculus [10]; 38% in the series with Mus musculus [12]. In addition, the concentration at 1 h came to 70 nM in series [3], 235 nM in [4], 10 nM in series [5] and 2 nM in series [13]. Further, in the series on Mus musculus [6], the “inhibition (INH)” value was more than 80%. The hepatocyte CLint at 1 µM in series [7] is 0.1 µL/min/1e6 cells; in series [8] it was less than 1 µL/min/1e6 cells; in series [14], less than 1 µL/min/1e6 cells; in series [15], 0.3 µL/min/1e6 cells. Moreover, in the series with Mus musculus [11], the inhibition result was “inactive”.
With `Cn1c(=O)cc(N2CCC[C@@H](N)C2)n(Cc2ccccc2C#N)c1=O`, in the series with Mus musculus [10], the outcome was Active.
